Laboratory results published in ChEMBL document CHEMBL3431459, “Roche carnitine palmitoyltransferase modulator screening data (supplementary data associated with the publication CHEMBL2216752)”.
pIC50: −log10 of the molar value. ≈ marks a conversion by molar mass, not a printed value.

Tests used:
[1] = SUPPLEMENTARY: PAMPA permeability assay; type: physicochemical; conditions: read-out: Permeability
[2] = SUPPLEMENTARY: Lyophilisation Solubility Assay (LYSA); type: physicochemical; conditions: read-out: Kinetic_solubility
[3] = SUPPLEMENTARY: Lipophilicity (log D) Determination by high-throughput shake-flask; type: physicochemical; conditions: octanol/water
[4] = molecular target: T1, Carnitine O-palmitoyltransferase 1, liver isoform (Homo sapiens, UniProt P50416); experiment: (§1) SUPPLEMENTARY: Inhibition of Carnitine palmitoyltransferase 1, liver isoform
T1 sequence (P50416 whole entry): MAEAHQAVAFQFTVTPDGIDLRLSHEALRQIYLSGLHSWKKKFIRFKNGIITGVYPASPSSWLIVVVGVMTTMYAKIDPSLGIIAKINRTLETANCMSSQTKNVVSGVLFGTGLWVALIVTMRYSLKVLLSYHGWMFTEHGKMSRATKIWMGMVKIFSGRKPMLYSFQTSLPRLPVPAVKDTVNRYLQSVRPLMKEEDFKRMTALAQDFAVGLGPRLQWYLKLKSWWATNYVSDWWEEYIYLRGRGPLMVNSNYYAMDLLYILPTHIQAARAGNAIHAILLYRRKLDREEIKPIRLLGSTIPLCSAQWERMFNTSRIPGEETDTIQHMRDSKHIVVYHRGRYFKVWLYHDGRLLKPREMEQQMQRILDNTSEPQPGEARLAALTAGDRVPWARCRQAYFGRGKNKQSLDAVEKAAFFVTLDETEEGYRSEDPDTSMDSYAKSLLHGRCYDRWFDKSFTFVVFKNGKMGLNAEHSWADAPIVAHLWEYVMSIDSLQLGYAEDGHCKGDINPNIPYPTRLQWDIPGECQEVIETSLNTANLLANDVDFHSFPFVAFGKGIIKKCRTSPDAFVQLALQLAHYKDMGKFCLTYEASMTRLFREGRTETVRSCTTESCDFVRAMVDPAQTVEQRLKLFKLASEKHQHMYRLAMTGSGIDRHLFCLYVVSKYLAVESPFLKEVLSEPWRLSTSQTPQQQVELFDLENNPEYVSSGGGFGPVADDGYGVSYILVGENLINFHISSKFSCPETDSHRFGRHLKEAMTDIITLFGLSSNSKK

[5] = molecular target: T2, Carnitine O-palmitoyltransferase 1, liver isoform (Rattus norvegicus, UniProt P32198); experiment: as §1
T2 sequence (P32198 whole entry): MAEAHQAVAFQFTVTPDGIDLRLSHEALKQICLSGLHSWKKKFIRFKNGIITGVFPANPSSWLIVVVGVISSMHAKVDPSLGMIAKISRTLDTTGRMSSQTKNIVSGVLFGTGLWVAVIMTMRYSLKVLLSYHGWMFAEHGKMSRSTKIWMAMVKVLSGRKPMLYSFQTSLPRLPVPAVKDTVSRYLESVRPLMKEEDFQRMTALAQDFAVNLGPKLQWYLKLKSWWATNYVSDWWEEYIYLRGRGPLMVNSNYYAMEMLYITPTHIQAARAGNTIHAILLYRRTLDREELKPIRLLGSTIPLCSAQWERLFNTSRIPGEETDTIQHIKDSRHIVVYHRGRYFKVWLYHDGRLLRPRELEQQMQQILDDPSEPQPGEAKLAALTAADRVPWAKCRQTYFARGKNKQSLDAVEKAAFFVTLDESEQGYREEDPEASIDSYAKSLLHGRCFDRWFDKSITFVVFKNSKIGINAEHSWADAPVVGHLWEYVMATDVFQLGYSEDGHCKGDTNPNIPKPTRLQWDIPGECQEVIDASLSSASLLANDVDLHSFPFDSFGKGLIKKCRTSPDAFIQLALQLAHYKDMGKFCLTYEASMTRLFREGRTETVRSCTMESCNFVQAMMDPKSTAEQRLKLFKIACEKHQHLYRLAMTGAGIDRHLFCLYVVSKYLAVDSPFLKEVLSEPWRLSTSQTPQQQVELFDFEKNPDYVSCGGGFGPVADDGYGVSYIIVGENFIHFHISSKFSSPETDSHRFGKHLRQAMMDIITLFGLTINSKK

[6] = molecular target: T3, Carnitine O-palmitoyltransferase 1, muscle isoform (Homo sapiens, UniProt Q92523); experiment: SUPPLEMENTARY: Inhibition of Carnitine palmitoyltransferase 1, muscle isoform; set-up: species or system Muscle tissue
T3 sequence (Q92523 whole entry): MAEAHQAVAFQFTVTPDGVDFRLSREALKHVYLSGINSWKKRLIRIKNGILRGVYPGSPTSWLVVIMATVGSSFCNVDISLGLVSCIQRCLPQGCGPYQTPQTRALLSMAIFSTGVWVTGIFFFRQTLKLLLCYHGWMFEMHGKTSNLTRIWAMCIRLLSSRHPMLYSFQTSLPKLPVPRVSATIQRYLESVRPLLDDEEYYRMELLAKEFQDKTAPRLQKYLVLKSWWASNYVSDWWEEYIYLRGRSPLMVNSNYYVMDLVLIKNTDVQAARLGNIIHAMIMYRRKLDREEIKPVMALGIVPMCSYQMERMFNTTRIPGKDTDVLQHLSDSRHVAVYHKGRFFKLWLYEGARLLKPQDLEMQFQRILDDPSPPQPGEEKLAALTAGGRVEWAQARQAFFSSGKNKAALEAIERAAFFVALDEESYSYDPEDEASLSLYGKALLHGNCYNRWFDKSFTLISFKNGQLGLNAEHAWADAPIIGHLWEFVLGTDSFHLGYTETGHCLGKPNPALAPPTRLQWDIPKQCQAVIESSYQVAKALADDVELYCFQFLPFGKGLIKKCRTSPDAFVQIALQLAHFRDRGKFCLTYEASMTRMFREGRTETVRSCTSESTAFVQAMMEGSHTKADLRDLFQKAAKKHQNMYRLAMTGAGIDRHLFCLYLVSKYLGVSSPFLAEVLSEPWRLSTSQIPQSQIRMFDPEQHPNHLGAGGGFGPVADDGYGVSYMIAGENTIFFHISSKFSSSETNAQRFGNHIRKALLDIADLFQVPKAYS

[7] = molecular target: T4, Carnitine O-palmitoyltransferase 2, mitochondrial (Rattus norvegicus, UniProt P18886); experiment: (§2) SUPPLEMENTARY: Inhibition of Carnitine palmitoyltransferase 2
T4 sequence (P18886 whole entry): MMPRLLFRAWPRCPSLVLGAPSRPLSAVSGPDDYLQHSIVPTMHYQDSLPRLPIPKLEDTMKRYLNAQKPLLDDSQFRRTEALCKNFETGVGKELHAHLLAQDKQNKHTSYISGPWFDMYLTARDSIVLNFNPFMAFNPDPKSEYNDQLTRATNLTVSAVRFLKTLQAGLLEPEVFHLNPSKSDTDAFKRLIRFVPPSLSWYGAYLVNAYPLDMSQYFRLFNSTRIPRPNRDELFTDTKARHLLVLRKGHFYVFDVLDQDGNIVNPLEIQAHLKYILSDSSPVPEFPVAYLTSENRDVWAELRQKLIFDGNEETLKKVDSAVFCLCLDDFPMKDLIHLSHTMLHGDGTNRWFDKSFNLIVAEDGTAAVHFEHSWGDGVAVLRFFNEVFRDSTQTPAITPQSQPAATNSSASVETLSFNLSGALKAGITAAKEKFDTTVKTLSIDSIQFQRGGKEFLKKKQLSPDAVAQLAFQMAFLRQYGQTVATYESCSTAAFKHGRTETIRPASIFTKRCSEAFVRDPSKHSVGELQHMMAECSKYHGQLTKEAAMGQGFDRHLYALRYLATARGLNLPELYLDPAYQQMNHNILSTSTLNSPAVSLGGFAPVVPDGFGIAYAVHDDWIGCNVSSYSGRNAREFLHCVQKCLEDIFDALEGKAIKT

[8] = molecular target: T5, Carnitine O-palmitoyltransferase 2, mitochondrial (Homo sapiens, UniProt P23786); experiment: as §2
T5 sequence (P23786 whole entry): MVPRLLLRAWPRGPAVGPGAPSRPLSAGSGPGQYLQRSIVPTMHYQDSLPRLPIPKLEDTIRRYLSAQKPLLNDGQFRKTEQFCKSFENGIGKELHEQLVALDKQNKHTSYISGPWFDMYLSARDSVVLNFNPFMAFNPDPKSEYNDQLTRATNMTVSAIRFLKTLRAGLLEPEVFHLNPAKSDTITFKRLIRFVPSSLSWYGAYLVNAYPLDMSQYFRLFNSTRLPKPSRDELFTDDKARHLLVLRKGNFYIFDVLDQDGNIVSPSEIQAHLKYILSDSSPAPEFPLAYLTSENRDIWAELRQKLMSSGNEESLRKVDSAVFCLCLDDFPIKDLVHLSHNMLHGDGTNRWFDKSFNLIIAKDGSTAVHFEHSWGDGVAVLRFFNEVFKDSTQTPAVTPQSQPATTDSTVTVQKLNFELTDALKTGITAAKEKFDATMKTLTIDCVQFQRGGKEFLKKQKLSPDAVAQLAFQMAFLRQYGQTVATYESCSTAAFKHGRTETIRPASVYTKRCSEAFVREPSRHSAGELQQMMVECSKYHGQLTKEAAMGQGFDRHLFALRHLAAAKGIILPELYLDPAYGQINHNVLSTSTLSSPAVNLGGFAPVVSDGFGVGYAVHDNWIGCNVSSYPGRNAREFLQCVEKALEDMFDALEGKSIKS

Structure (SMILES)	Papp [1]	solubility kinetic [2]	logD [3]	pIC50 [4]	pIC50 [5]	pIC50 [6]	pIC50 [7]	pIC50 [8]
COc1ccc(Cl)cc1S(=O)(=O)N1CCOc2c(F)cc(C(=O)Nc3nc(CC(=O)O)cs3)cc21	2.43 ×10⁻⁶ cm/s	10 µg/mL (≈ 18.5 µM)	0.28	7.62	7.47	6.13	< 4.00	< 4.00
O=C(O)c1ccc(C(=O)Nc2nn(Cc3ccc(OC(F)F)cc3)c3ccc(F)cc23)cc1	3.15 ×10⁻⁶ cm/s	70 µg/mL (≈ 154 µM)	0.92	6.81	6.29	6.20	< 4.00	< 4.00
O=C([C@H]1CCCCN1C(=O)COc1ccccc1)N1Cc2ccc(Cl)cc2C1	5.03 ×10⁻⁶ cm/s	15 µg/mL (≈ 37.6 µM)	3.26	6.47	6.25	< 4.00	6.09	6.21
COc1ccc(Cl)cc1CN1C(=O)OCc2ccc(C(=O)Nc3ccc(CC(=O)O)cc3)cc21	1.48 ×10⁻⁶ cm/s	44 µg/mL (≈ 91.5 µM)	0.06	6.53		4.89	< 4.00	< 4.00
COc1ccc(Cl)cc1CN1C(=O)OC(C)(C)c2ccc(C(=O)Nc3ccc(CC(=O)O)c(Cl)c3)cc21	1.36 ×10⁻⁶ cm/s	25 µg/mL (≈ 46 µM)	1.83	6.48		5.73	< 4.00	< 4.00
COc1ccc(Cl)cc1S(=O)(=O)N(C)c1cccc(C(=O)Nc2nc(CC(=O)O)cs2)c1	2.48 ×10⁻⁶ cm/s	> 549 µg/mL	0.02	7.21		5.84	< 4.00	< 4.00
COc1ccc(Cl)cc1S(=O)(=O)N1CC(C(=O)O)Oc2ccc(C(=O)Nc3cccc(F)c3)cc21 (stereo unspecified)	0.14 ×10⁻⁶ cm/s	521 µg/mL (≈ 1000 µM)	-0.02	7.79	7.52		< 4.00	< 4.00
O=C(NCc1ccccc1)[C@H]1CCCCN1C(=O)COc1ccccc1	7.12 ×10⁻⁶ cm/s	43 µg/mL (≈ 122 µM)	2.51	5.59		< 4.00	< 4.00	< 4.00

Second part, the compound after the results:

Papp [1]	solubility kinetic [2]	logD [3]	pIC50 [4]	pIC50 [5]	pIC50 [6]	pIC50 [7]	pIC50 [8]	Structure (SMILES)
1.09 ×10⁻⁶ cm/s	2 µg/mL (≈ 5.12 µM)	3.51	6.81	6.69	< 4.00	< 4.00	< 4.00	O=C1COc2cc(C#C[C@H]3CCCCN3C(=O)COc3ccccc3)ccc2N1
4.46 ×10⁻⁶ cm/s	175 µg/mL (≈ 382 µM)	1.41	6.08		< 4.00	4.34	5.15	NS(=O)(=O)c1ccc2c(c1)CN(C(=O)[C@H]1CCCCN1C(=O)COc1ccccc1)CC2
7.49 ×10⁻⁶ cm/s	< 1 µg/mL	4	< 5.00		< 4.00	< 4.00	< 4.00	CCc1ccc(CCOc2ccc(CC3SC(=O)NC3=O)cc2)nc1 (stereo unspecified) [PIOGLITAZONE]
1.62 ×10⁻⁶ cm/s	26 µg/mL (≈ 49.6 µM)	-0.01	7.30		6.37	< 4.00	< 4.00	COc1ccc(Cl)cc1S(=O)(=O)N1CCOc2ccc(C(=O)Nc3nc(CC(=O)O)cs3)cc21
0.02 ×10⁻⁶ cm/s	88 µg/mL (≈ 312 µM)	0.42	6.18		< 4.00	< 4.00	< 4.00	COc1ccc2[nH]cc(C(=O)COc3ccncc3)c2c1
9.1 ×10⁻⁶ cm/s	112 µg/mL (≈ 306 µM)	2.62	5.71		< 4.00	5.16	5.57	CN(Cc1ccccc1)C(=O)[C@H]1CCCCN1C(=O)COc1ccccc1
7.65 ×10⁻⁶ cm/s	92 µg/mL (≈ 257 µM)	2.49	< 5.00		< 4.00	< 4.00	< 4.00	CN(CCOc1ccc(CC2SC(=O)NC2=O)cc1)c1ccccn1 (stereo unspecified) [ROSIGLITAZONE]
3.3 ×10⁻⁶ cm/s	172 µg/mL (≈ 373 µM)	1.51	6.90		< 4.00	4.20	4.67	O=C1CCC(=O)N1c1cccc(-c2n[nH]c([C@H]3CCCCN3C(=O)COc3ccccc3)n2)c1
